Test system: Liver ApoB mRNA
Test: Liver ApoB mRNA knockdown by 1:57 SNALP containing cationic lipid and ApoB siRNA in mice (branched DNA QuantiGene assay)
Format: in vivo
Conditions: Balb/c mice; for ApoB knockdown relative to PBS control (%): 1:57 SNALP containing the cationic lipid with ApoB siRNA, liver ApoB:GAPD mRNA, 48 h, n = 3; for ApoB silencing activity compared to a SNALP formulation containing the C2K benchmark cationic lipid: 1:57 SNALP with ApoB siRNA, administered at the same dose as C2K SNALP
Excerpt: In some embodiments, siRNA molecules were encapsulated into serum-stable nucleic acid-lipid particles (SNALP) composed of the following lipids: (1) the lipid conjugate PEG2000-C-DMA (3-N-[(-methoxypoly(ethylene glycol)2000)carbamoyl]-1,2-dimyristyloxypropylamine); (2) one or more cationic lipids or salts thereof (e.g., cationic lipids of Formula I of the invention and/or other cationic lipids described herein); (3) the phospholipid DPPC (1,2-dipalmitoyl-sn-glycero-3-phosphocholine) (Avanti Polar Lipids; Alabaster, Ala.); and (4) synthetic cholesterol (Sigma-Aldrich Corp.; St. Louis, Mo.) in the molar ratio 1.4:57.1:7.1:34.3, respectively. In other words, siRNA molecules were encapsulated into SNALP of the following “1:57” formulation: 1.4% PEG2000-C-DMA; 57.1% cationic lipid; 7.1% DPPC; and 34.3% cholesterol. It should be understood that the 1:57 formulation is a target formulation, and that the amount of lipid (both cationic and non-cationic) present and the amount of lipid conjugate present in the formulation may vary. Typically, in the 1:57 formulation, the amount of cationic lipid will be 57.1 mol %±5 mol %, and the amount of lipid conjugate will be 1.4 mol %±0.5 mol %, with the balance of the 1:57 formulation being made up of non-cationic lipid (e.g., phospholipid, cholesterol, or a mixture of the two).
SNALP formulations were administered by IV injection at 0.033 mg/kg or at 0.05 mg/kg into Balb/c mice (n=3 per group). Liver ApoB mRNA levels were evaluated at 48 hours after SNALP administration by a branched DNA assay (QuantiGene assay) to assess ApoB mRNA relative to the housekeeping gene GAPDH.

Row | SMILES | ApoB knockdown relative to PBS control (%) (IV 0.033 mg/kg) | ApoB knockdown relative to PBS control (%) (IV 0.05 mg/kg) | ApoB silencing activity compared to a SNALP formulation containing the C2K benchmark cationic lipid
1 | CCCCC/C=C\C/C=C\CCCCCCCCC(CCCCCCCC/C=C\C/C=C\CCCCC)OC(=O)CCCN(C)C [Compound 1, (6Z,9Z,28Z,31Z)-heptatriaconta-6,9,28,31-tetraen-19-yl 4-(dimethylamino)butanoate] | −71% | −81% | unexpectedly improved ApoB silencing activity
2 | CC/C=C\C/C=C\C/C=C\CCCCCCCCC(CCCCCCCC/C=C\C/C=C\C/C=C\CC)OC(=O)CCCN(C)C [Compound 4, LenMC3] | −78% | – | unexpectedly improved ApoB silencing activity
3 | CCC1CC1CC1CC1CC1CC1CCCCCCCCC(CCCCCCCCC1CC1CC1CC1CC1CC1CC)OC(=O)CCCN(C)C (centres unmarked) [Compound 5] | −56% | – | –
4 | CCCCC/C=C\C/C=C\C/C=C\CCCCCC(CCCCC/C=C\C/C=C\C/C=C\CCCCC)OC(=O)CCCN(C)C [Compound 8, γ-LenMC3] | −71% | – | unexpectedly improved ApoB silencing activity
5 | CCCCCC1CC1CC1CC1CC1CC1CCCCCC(CCCCCC1CC1CC1CC1CC1CC1CCCCC)OC(=O)CCCN(C)C (centres unmarked) [Compound 9, CP-γ-LenMC3] | −54% | – | –
6 | CCC/C=C\C/C=C\CCCCCCCCC(CCCCCCCC/C=C\C/C=C\CCCCC)OC(=O)N(C)CCCN(C)C (centres unmarked) [Compound 10, MC3MC] | −50% | – | –
7 | CCCCC/C=C\C/C=C\CCCCCCCCC(CCCCCCCC/C=C\C/C=C\CCCCC)OC(=O)N(C)CCN(C)C [Compound 11, MC2MC] | – | −54% | –
8 | CCCCC/C=C\C/C=C\CCCCCCCCC(CCCCCCCC/C=C\C/C=C\CCCCC)OCCCN(C)C [Compound 13, 3-((6Z,9Z,28Z,31Z)-heptatriaconta-6,9,28,31-tetraen-19-yloxy)-N,N-dimethylpropan-1-amine] | −69% | – | unexpectedly improved ApoB silencing activity
9 | CCCCC/C=C\C/C=C\CCCCCCCCC(CCCCCCCC/C=C\C/C=C\CCCCC)OCCCCN(C)C [Compound 15, MC4 Ether] | – | −77% | unexpectedly improved ApoB silencing activity
10 | CC(C)CCCC(C)CCCC(C)CCCC(C)CCC(CCC(C)CCCC(C)CCCC(C)CCCC(C)C)OC(=O)CCCN(C)C (centres unmarked) [Compound 17, Phytanyl-MC3] | – | −14% | –
11 | CC(C)CCCC(C)CCCC(C)CCCC(C)CCC(CCC(C)CCCC(C)CCCC(C)CCCC(C)C)OC(=O)CCCCN(C)C (centres unmarked) [Compound 18, Phytanyl-MC4] | – | −46% | –
12 | CCCCC/C=C\C/C=C\CCCCCCCCC(CCCCCCCC/C=C\C/C=C\CCCCC)SC(=O)CCCN(C)C [Compound 20, S-(6Z,9Z,28Z,31Z)-heptatriaconta-6,9,28,31-tetraen-19-yl 4 (dimethylamino) butanethioate] | – | −50% | –
13 | CCCCC/C=C\C/C=C\CCCCCCCC(O)C(CCCCCCC/C=C\C/C=C\CCCCC)OC(=O)CCN(C)C (centres unmarked) [Compound 22, (6Z,9Z,27Z,30Z)-19-hydroxyhexatriaconta-6,9,27,30-tetraen-18-yl 3-(dimethylamino)propanoate] | −30% | – | –
14 | CCCCC/C=C\C/C=C\CCCCCCCC(=O)C(CCCCCCC/C=C\C/C=C\CCCCC)OC(=O)CCCN(C)C (centres unmarked) [Compound 23, (6Z,9Z,27Z,30Z)-19-oxohexatriaconta-6,9,27,30-tetraen-18-yl 4-(dimethylamino)butanoate] | −33% | – | –
15 | CCCCC/C=C\C/C=C\CCCCCCCCC(CCCCCCCC/C=C/C/C=C/CCCCC)OC(=O)CCCN(C)C (centres unmarked) [Compound 25, (6Z,9Z,28E,31E)-heptatriaconta-6,9,28,31-tetraen-19-yl 4-(dimethylamino)butanoate] | – | −66% | –
16 | CCCCC/C=C\C/C=C\CCCCCCCCCC(CCCCCCC/C=C\C/C=C\CCCCC)OC(=O)N(CCCCCC)CCCN(C)C (centres unmarked) [Compound 27, (6Z,9Z,28Z,31Z)-heptatriaconta-6,9,28,31-tetraen-18-yl 3-(dimethylamino)propyl(hexyl)carbamate] | −66% | – | unexpectedly improved ApoB silencing activity
17 | CC/C=C\CCCN(CCCN(C)C)C(=O)OC(CCCCCCC/C=C\C/C=C\CCCCC)CCCCCCCCC/C=C\C/C=C\CCCCC (centres unmarked) [Compound 28, (6Z,9Z,28Z,31Z)-heptatriaconta-6,9,28,31-tetraen-18-yl 3-(dimethylamino)propyl((Z)-hept-4-enyl)carbamate] | −68% | – | unexpectedly improved ApoB silencing activity
18 | CCCCC/C=C\C/C=C\CCCCCCCCCC(CCCCCCC/C=C\C/C=C\CCCCC)OC(=O)N(CC)CCN(C)C (centres unmarked) [Compound 29, (6Z,9Z,28Z,31Z)-heptatriaconta-6,9,28,31-tetraen-18-yl 2-(dimethylamino)ethyl(ethyl)carbamate] | – | −59% | –
19 | CCCCC/C=C\C/C=C\CCCCCCCCC(CCCCCCCC/C=C\C/C=C\CCCCC)OC(=O)N(C)CCCN(C)CC [Compound 30, (6Z,9Z,28Z,31Z)-heptatriaconta-6,9,28,31-tetraen-19-yl (3-(ethyl(methyl)amino)propyl)(methyl)carbamate] | – | −65% | –
20 | CCCCC/C=C\C/C=C\CCCCCCCCC(CCCCCCCC/C=C\C/C=C\CCCCC)OC(=O)N(C)CCCN(CC)CC [Compound 31, (6Z,9Z,28Z,31Z)-heptatriaconta-6,9,28,31-tetraen-19-yl (3-(diethylamino)propyl)(methyl)carbamate] | – | −62% | –
21 | CC/C=C\C/C=C\C/C=C\CCCCCCCCC(CCCCCCCC/C=C\C/C=C\C/C=C\CC)OCCCN(C)C [Compound 34, 3-((3Z,6Z,9Z,28Z,31Z,34Z)-heptatriaconta-3,6,9,28,31,34-hexaen-19-yloxy)-N,N-dimethylpropan-1-amine] | −41% | – | –
22 | CC/C=C\C/C=C\C/C=C\CCCCCCCCC(CCCCCCCC/C=C\C/C=C\C/C=C\CC)OCCCCN(C)C [Compound 35, 4-((3Z,6Z,9Z,28Z,31Z,34Z)-heptatriaconta-3,6,9,28,31,34-hexaen-19-yloxy)-N,N-dimethylbutan-1-amine] | −78% | – | unexpectedly improved ApoB silencing activity
23 | CCCCC/C=C/C/C=C/CCCCCCCCC(CCCCCCCC/C=C/C/C=C/CCCCC)OC(=O)CCCN(C)C [Compound 40, (6E,9E,28E,31E)-heptatriaconta-6,9,28,31-tetraen-19-yl 4-(dimethylamino)butanoate] | – | −58% | –
24 | CCCCCC/C=C/C=C\CCCCCCCCC(CCCCCCCC/C=C\C=C\CCCCCC)OCCCN(C)C [Compound 41, 3-((7E,9Z,28Z,30E)-heptatriaconta-7,9,28,30-tetraen-19-yloxy)-N,N-dimethylpropan-1-amine] | −52% | – | –
25 | CCCCC/C=C\C/C=C\CCCCCCCCC1(CCCCCCCC/C=C\C/C=C\CCCCC)OCC(CCN(C)C)O1 (centres unmarked) [Compound C2K, 2,2-dilinoleyl-4-(2-dimethylaminoethyl)-[1,3]-dioxolane, reference compound] | −51% | −66% | –

— US20170151333A1, “NOVEL CATIONIC LIPIDS AND METHODS OF USE THEREOF” (PROTIVA BIOTHERAPEUTICS, INC., priority 2010, published 2017)
